SMILES strings stand for the structures.

This is an account of results in patent publication US20240182454A1, “Polycyclic Compound for Inhibiting RNA Helicase DHX33, and Application of Compound” (Shenzhen KeYe Life Technologies, Co., Ltd, priority 2021, published 2024).

In the first test the test system is U251-MG cells. The test is described as follows: Half-maximal cell-inhibitory concentration on U251-MG cells (CCK-8). Type of test: cell-based. The following applies: Homo sapiens, U-251, U251-MG cells (DHX33-overexpressing), 48 hours incubation, read-out: IC50, half-maximal inhibitory concentrations of compounds on U251-MG cell. The procedure: U251-MG cells were purchased from the cell bank of the Chinese Academy of Sciences. Cells were cultured in MEM medium containing 10% fetal bovine serum (FBS), 2 mM L-glutamine, streptomycin and penicillin. The growth conditions were set as follows: a humidified cell incubator (37° C., 5% CO2). Cells were passaged every 3 days and were discarded after 10 passages.
U251-MG cells (a DHX33-overexpressing cancer cell strain) were seeded on a 96-well plate at 1×10^4 cells/100 μl/well. After the cells were completely attached, the compounds were added to the cell culture medium at a concentration of 5 nM, 10 nM, 25 nM, 50 nM, 100 nM, 250 nM, 500 nM, 1000 nM, 2000 nM, 5000 nM, 10 μM or 20 μM, and the resulting mixture was uniformly mixed with a multichannel pipette. After the cells were incubated with the compound for 48 hours, CCK-8 reagent (Yeasen Biotechnology (Shanghai) Co., Ltd.) was added to the medium in the 96-well plate in accordance with the standard procedure. After being incubated for 2 hours, the plate was read with a microplate reader (OD=450 nm). The experiment was repeated three times, the inhibiton curve of the compound at different concentrations was plotted, and the half-maximal inhibitory concentration (IC50) of the compound was calculated.
With `Cc1cc(C#N)c(-n2c(C)cc(C(=O)Nc3nc4ccccc4[nH]3)c2C)s1` [AB29553], the IC50 lay within 100 to 1000 nM.

As for `COc1ccc2nc(N(C)C(=O)c3cc(C)n(-c4sc(C)cc4C#N)c3C)[nH]c2c1` [AB29560], the IC50 was 100 to 1000 nM.

Turning to `Cc1cc(C#N)c(-n2c(C)cc(C(=O)Nc3nc4cccnc4[nH]3)c2C)s1` [AB29554], the IC50 lay within 1000 to 5000 nM.

In the case of `COc1ccc2nc(NC(=O)c3cc(C)n(Cc4cccs4)c3C)[nH]c2c1` [AB29552], the IC50 fell in the range of 1000 to 5000 nM.

`COc1ccc2nc(NC(=O)c3cc(C)n(-c4sc(C)cc4C#N)c3C)n(COC(=O)C(C)(C)C)c2c1` [AB29564]: the IC50 was in the range of 1000 to 5000 nM.

For the compound `COc1ccc2nc(NC(=O)c3cc(C)n(-c4oc(C)nc4C#N)c3C)[nH]c2c1` [AB29522], the IC50 lay in the range of 100 to 1000 nM.

Regarding `COCn1c(NC(=O)c2cc(C)n(-c3sc(C)cc3C#N)c2C)nc2ccc(OC)cc21` [AB29562], the IC50 fell in the range of 100 to 1000 nM.

`COCn1c(NC(=O)c2cc(C)n(-c3sc(C)cc3C#N)c2C)nc2cc(OC)ccc21` [AB29563]: the IC50 lay within 100 to 1000 nM.

Regarding `COc1ccc2nc(C(=O)Nc3cc(C)n(-c4sc(C)cc4C#N)c3C)[nH]c2c1` [AB29540], the IC50 is 100 to 1000 nM.

Consider `Cc1cc(C#N)c(-n2c(C)cc(C(=O)Nc3nc4ccncc4[nH]3)c2C)s1` [AB29555], for which the IC50 was in the range of 1000 to 5000 nM.

Turning to `COc1cnc2nc(NC(=O)c3cc(C)n(-c4sc(C)cc4C#N)c3C)[nH]c2c1` [AB29566], the IC50 was less than 100 nM.

Consider `COc1cc2[nH]c(NC(=O)c3cc(C)n(-c4sc(C)cc4C#N)c3C)nc2cn1` [AB29558], for which the IC50 is less than 100 nM.

`COc1ccc2c(c1)nc(NC(=O)c1cc(C)n(-c3sc(C)cc3C#N)c1C)n2COC(=O)C(C)(C)C` [AB29565]: the IC50 is 1000 to 5000 nM.

On to `COc1ccc2nc(NC(=O)c3cc(C)n(-c4sc(C)cc4C#N)c3C)n(C)c2c1` [AB29561], for which the IC50 is 100 to 1000 nM.

For the compound `Cc1cc(C#N)c(-n2c(C)cc(C(=O)Nc3nc4ccc(Cl)cc4[nH]3)c2C)s1` [AB29557], the IC50 is 100 to 1000 nM.

In the case of `COc1cc2cc(NC(=O)c3cc(C)n(-c4sc(C)cc4C#N)c3C)[nH]c2cn1` [AB29573], the IC50 was in the range of 100 to 1000 nM.

For `Cc1cc(C#N)c(-n2c(C)cc(C(=O)Nc3nc4ccc(OC(F)(F)F)cc4[nH]3)c2C)s1` [AB29572], the IC50 is 1000 to 5000 nM.

Consider `Cc1cc(C#N)c(-n2c(C)cc(C(=O)Nc3nc4ccc(F)cc4[nH]3)c2C)s1` [AB29556], for which the IC50 lay in the range of 100 to 1000 nM.

Regarding `COc1cccc2nc(NC(=O)c3cc(C)n(-c4sc(C)cc4C#N)c3C)[nH]c12` [AB29559], the IC50 was in the range of 1000 to 5000 nM.

A further test addresses T1, DHX33 protein (Mus musculus, UniProt Q80VY9).
T1 construct: 0.25 μg of purified full-length DHX33 protein; made in house; host or cells: E. coli BL-21pLysS (DE3)
T1 sequence (Q80VY9 1-698): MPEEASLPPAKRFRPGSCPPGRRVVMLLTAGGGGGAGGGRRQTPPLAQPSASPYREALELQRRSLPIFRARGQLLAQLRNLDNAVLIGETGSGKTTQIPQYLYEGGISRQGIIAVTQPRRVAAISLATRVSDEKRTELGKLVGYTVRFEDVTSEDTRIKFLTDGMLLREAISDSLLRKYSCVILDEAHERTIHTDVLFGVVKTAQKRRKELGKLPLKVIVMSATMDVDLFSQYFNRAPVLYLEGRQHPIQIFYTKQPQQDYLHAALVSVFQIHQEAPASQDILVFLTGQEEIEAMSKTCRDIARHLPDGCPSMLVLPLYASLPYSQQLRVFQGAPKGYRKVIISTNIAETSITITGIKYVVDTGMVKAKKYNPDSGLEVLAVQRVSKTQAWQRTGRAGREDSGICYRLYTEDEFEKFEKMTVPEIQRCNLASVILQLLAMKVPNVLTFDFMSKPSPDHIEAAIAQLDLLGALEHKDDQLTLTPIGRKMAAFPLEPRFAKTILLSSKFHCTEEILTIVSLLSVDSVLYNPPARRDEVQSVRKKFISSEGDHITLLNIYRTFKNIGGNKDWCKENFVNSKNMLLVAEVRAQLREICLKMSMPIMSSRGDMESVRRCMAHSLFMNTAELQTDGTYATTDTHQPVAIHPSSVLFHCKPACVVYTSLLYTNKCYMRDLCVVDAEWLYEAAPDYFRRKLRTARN
The experiment in a line: Inhibition of the helicase activity of DHX33 protein in vitro. Format: biochemical. The following applies: recombinant DHX33 protein, compound 1-1000 nM, 37° C. 60 minutes; read-out: IC50, inhibitory effects of the compounds on the helicase activity of DHX33 protein. The procedure: Biochemistry. 2019;58 (4):250-8. RNA helicase gene (mouse DHX33 gene) was cloned into a pET32M-3C vector (between BamH I/Not I restriction sites). Afterward, the plasmid was transformed into BL-21pLysS (DE3) E. coli. 0.5 mM isopropyl 1-thio-P-D-galactopyranoside (IPTG) was added, and the expression of the recombinant protein was induced at 16° C. for 16 hours. Cells were allowed to precipitate and were resuspended in a cell lysis buffer [50 mM Tris-HCl (pH7.2), 150 mM NaCl, 1% Triton X-100, and 50 mM imidazole supplemented with a protease inhibitor]. Thereafter, cells were subjected to ultrasonic treatment and centrifuged at a rotation speed of 13000 rpm for 25 minutes. The supernatant was incubated with the nickel-nitrilotriacetic acid beads equilibrated in Tris buffer, followed by sufficient washing. Thereafter, the purified protein was eluted with a solution of 300 mM imidazole in Tris buffer, and was then subjected to dialysis against an imidazole-free Tris buffer at 4° C. overnight.
The components involved in the reaction for testing the helicase activity were added to a 96-well opaque white plate. The method was outlined as follows. The 96-well plate was coated with neutravidin at a final concentration of 10 μg/mL (100 μL/well) overnight at 4° C. Afterwards, the neutravidin-coated plate was blocked with 100 μL of 0.1% (w/v) BSA (dissolved in normal PBS) at 22° C. for 2 hours. After washing, a DNA duplex (2.5 ng) that was resulted from the annealing of two single-stranded DNA oligonucleotides (the sequence of one single strand was biotin-labeled 5′-[…]-3; and the sequence of the other single strand was DIG-labeled 5′-[…]-3′) [the annealing reaction was carried out in PBS (pH 7.0) containing 1M NaCl] was added, and the resulting mixture was incubated at 22° C. for 4 hours. After the addition of 90 μL of the reaction mixture, the helicase reaction was initiated [0.25 μg of purified full-length DHX33 protein, dissolved in 25 mM 4-MOPS (pH 7.0), 5 mM ATP, 2 mM DTT, 3 mM MnCl2 and 100 μg/mL BSA]. The reaction was conducted at 37° C. for 60 minutes. After being washed, each well was incubated with a blocking solution [10% (w/v) BSA in 0.1 M maleic acid and 0.15 M NaCl (pH 7.5)] for 30 minutes, and was then incubated with 20 μL of antibody solution (anti-DIG-AP, Roche, in blocking buffer) for 30 minutes. After being washed with 100 μL of detection buffer [0.1 M Tris-HCl and 0.1 M NaCl (pH 9.5)], each well was added with 1 μL of chemiluminescent substrate (CSPD-0.25 mM), and the plate was incubated at 17° C. for 5 minutes. […] The remaining DIG-AP marker control in each well was counted for 10 minutes by a luminescence multi-well plate reader (Enspire, PerkinElmer). Higher reading indicated weaker helicase activity. […]
For `Cc1oc(-n2c(C)cc(/C=C(\C#N)c3nc4ccccc4[nH]3)c2C)c(C#N)c1C` [Compound as control, reference compound], the IC50 is no less than 400 nM.

For the compound `COc1cc2[nH]c(NC(=O)c3cc(C)n(-c4sc(C)cc4C#N)c3C)nc2cn1` [AB29558], the IC50 was less than 20 nM.

With `Cc1cc(C#N)c(-n2c(C)cc(C(=O)Nc3nc4ccc(F)cc4[nH]3)c2C)s1` [AB29556], the IC50 fell in the range of 20 to 100 nM.

For `COc1cccc2nc(NC(=O)c3cc(C)n(-c4sc(C)cc4C#N)c3C)[nH]c12` [AB29559], the IC50 is no less than 400 nM.
